Where two headings read alike, the source gives them in different places.
Key:
[1] = format: in vitro ADME; details: serum
Protocol: Thus, to have some predictive indications of the metabolic outcome of our compounds, the binding to serum proteins and the enzymatic biotransformation of ^99mTc1–3 in blood and tissue homogenates were assessed in vitro by incubating the purified compounds at 37 °C in human and mouse sera as well as in murine liver and kidney homogenates.
Protein Binding. The affinity of the ^99mTc(N) complexes toward the serum proteins was evaluated by chromatographic methods.
Upon incubation, 25 µL of each sample was withdrawn and loaded on a pre-spun (735× g for 2 min) Sephadex G-50 mini-column. The column was centrifuged at 735 × g for 1 min. The collected eluate and the column were counted in a NaI-scintillation counter. The protein-bound complex was calculated as the percentage of the total activity.

[2] = test system: M21 and M21L melanoma tumors; details: cited from earlier work; for Blood / Heart / Intestine / Kidneys / Liver / Muscle / Stomach: tumor-bearing mice
[3] = test system: human melanoma M21 (αvβ3 positive) cells; assay: Cell uptake and internalization in M21 cells; format: cell-based
Protocol: (§1) Cell uptake and internalization studies were performed on receptor-positive human melanoma M21 (expressing high levels of αvβ3 integrin and moderate level of integrin αvβ5), human breast cancer MCF7 (exclusively expressing αvβ5), and receptor-negative human melanoma M21L cell lines. The expression of αvβ3 and αvβ5 by cells was already evaluated by flow cytometry (Table 2). The stability of each radiolabeled peptide in the culture media before and after cell exposure was assessed.
(§2) Experiments were conducted in suspension at 37 °C. The working conditions were set up to avoid cell damage and/or death. With the use of these information, the cells were pre-incubated in sterile glass tubes at 37 °C for 10 min, in the presence or not of cRGDfK pentapeptide (50 µL; 1.65 mM).
(§3) Then, 1 mL of the cell suspension (1 × 10^6 cells/mL) was incubated with intermittent agitation with 10 µL (10 µCi) of ^99mTc1–3. At 90 min, the cells were moved in Eppendorf microcentrifuge tubes (1.5 mL) and the incubation was interrupted by centrifugation (3000 rpm for 5 min at 10 °C). The supernatant (S1) was separated from the pellet. The cell pellet was treated 10 min at room temperature with saline acetate buffer (CH3COOH 0.2M/NaCl 0.5 M) to remove the membrane-bound compound. After centrifugation (3000 rpm for 10 min at 10 °C), the supernatant (S2) was separated from the pellet (P1), and each fraction was collected, placed in a separated counting tube, and the activity was measured using a NaI counter (Cobra II, Packard) to estimate both the cell uptake and the internalized fraction.
(§4) The uptake of complexes was expressed as percentage cell uptake of the total activity on 10^6 cells (% cell uptake/10^6 cells).
(§5) All assessments were conducted in triplicate for three experiments.

[4] = test system: receptor-negative human melanoma M21L cells; assay: Cell uptake and internalization in M21L cells; format: cell-based; details: negative M21L cell line, 37 °C, 90 min
Protocol: as §1, §2, §3, §4, §5

[5] = format: physicochemical
Protocol: To explore the impact of the PNP ligand on the lipophilicity of the complexes, Log Ps in a mixture of n-octanol and PBS were determined. The lipophilicity decreased in the order ^99mTc1 > ^99mTc2 > ^99mTc3. The lipophilic character of each compound correlated well with the corresponding HPLC retention time and protein binding behavior.
Determination of log P values. n-Octanol/PBS partition coefficients were determined by vortex mixing (20 min) 3.0 mL of n-octanol, 3.0 mL of PBS and 100 µL of the radiolabeled compound purified as above. After centrifugation (3000 g for 10 min), aliquots (100 µL) of both the organic and the aqueous phases were collected and counted with a γ-counter.

Question: Which fraction unbound [1] does the source give for `N=C(N)NCCC[C@@H]1NC(=O)[C@H](CCCCNC(=O)c2ccc(NN)nc2)NC(=O)[C@@H](Cc2ccccc2)NC(=O)[C@H](CC(=O)O)NC(=O)CNC1=O` [^99mTc-HYNIC-cRGDfK, metal not drawn] here?
Answer: 0.977

Question: And the M21/M21L ratio ([2]; 1 h p.i.)?
Answer: 3.21

Question: And the M21/blood ratio ([2]; 1 h p.i.)?
Answer: 2.79

Question: And the M21/kidneys ratio ([2]; 1 h p.i.)?
Answer: 0.74

Question: And the M21/liver ratio ([2]; 1 h p.i.)?
Answer: 1.03

Question: What about the M21/muscle ratio ([2]; 1 h p.i.) of the same compound?
Answer: 3.59

Question: And the M21L tumor uptake ([2]; 1 h p.i.)?
Answer: 0.85 ± 0.20 %IA/g

Question: And the M21 tumor uptake ([2]; 1 h p.i.)?
Answer: 2.73 ± 0.26 %IA/g

Question: And the M21/blood ratio ([2]; 4 h p.i.)?
Answer: 4.58

Question: And the M21/kidneys ratio ([2]; 4 h p.i.)?
Answer: 0.73

Question: And the M21/liver ratio ([2]; 4 h p.i.)?
Answer: 1.20

Question: And the M21/muscle ratio ([2]; 4 h p.i.)?
Answer: 6.05

Question: And the M21 tumor uptake ([2]; 4 h p.i.)?
Answer: 2.06 ± 0.37 %IA/g

Question: What about the Blood ([2]; 1 h p.i.) of the same compound?
Answer: 0.98 ± 0.04 %IA/g

Question: And the Heart ([2]; 1 h p.i.)?
Answer: 1.01 ± 0.05 %IA/g

Question: And the Intestine ([2]; 1 h p.i.)?
Answer: 2.04 ± 0.18 %IA/g

Question: And the Kidneys ([2]; 1 h p.i.)?
Answer: 3.68 ± 0.13 %IA/g

Question: What about the Liver ([2]; 1 h p.i.) of the same compound?
Answer: 2.63 ± 0.14 %IA/g

Question: And the Muscle ([2]; 1 h p.i.)?
Answer: 0.76 ± 0.69 %IA/g

Question: And the Stomach ([2]; 1 h p.i.)?
Answer: 2.50 ± 0.75 %IA

Question: What about the Blood ([2]; 4 h p.i.) of the same compound?
Answer: 0.45 ± 0.02 %IA/g

Question: What about the Heart ([2]; 4 h p.i.) of the same compound?
Answer: 0.64 ± 0.09 %IA/g

Question: And the Intestine ([2]; 4 h p.i.)?
Answer: 1.29 ± 0.25 %IA/g

Question: What about the Kidneys ([2]; 4 h p.i.) of the same compound?
Answer: 2.81 ± 0.37 %IA/g

Question: And the Liver ([2]; 4 h p.i.)?
Answer: 1.71 ± 0.28 %IA/g

Question: And the Muscle ([2]; 4 h p.i.)?
Answer: 0.34 ± 0.05 %IA/g

Question: What about the Stomach ([2]; 4 h p.i.) of the same compound?
Answer: 1.28 ± 0.22 %IA

Question: What about the “cell uptake (sum of surface bound and internalized radioactivity), blocked” value ([3]; M21 blocked by an excess of cold cRGDfK, 37 °C, 90 min) of the same compound?
Answer: 0.85 ± 0.08 % cell uptake/10^6 cells

Question: And the “cell uptake (sum of surface bound and internalized radioactivity)” value ([3]; M21 unblocked, 37 °C, 90 min)?
Answer: 1.50 ± 0.08 % cell uptake/10^6 cells

Question: What about the “specific/nonspecific ratio, internalized radioactivity only” value ([3]; internalized radioactivity, melanoma cell lines) of the same compound?
Answer: 6.6

Question: What about the “ratio between specific and non-specific uptake” value ([3]; total uptake, melanoma cell lines) of the same compound?
Answer: 1.15

Question: And the “cell uptake (sum of surface bound and internalized radioactivity)” value [4]?
Answer: 1.30 ± 0.15 % cell uptake/10^6 cells

Question: What about the logP [5] of the same compound?
Answer: -3.52

From publication PMC9029856, “Impact of Different [Tc(N)PNP]-Scaffolds on the Biological Properties of the Small cRGDfK Peptide: Synthesis, In Vitro and In Vivo Evaluations” (Molecules, 2022)
